Reference: paper PMC11501026, “L-Arginine and asymmetric dimethylarginine (ADMA) transport across the mouse blood-brain and blood-CSF barriers: Evidence of saturable transport at both interfaces and CNS to blood efflux” (PLOS ONE, 2024)
Several values for one entry are separate records, joined by “and”; a condition that tells them apart may be missing. Equal entries are not always repeated.

How the values were obtained:
[1] = cross-inhibition, in situ perfusion: [^3H]-arginine with 0.5–500 μM unlabelled ADMA; format: in vivo, mouse; details: male, mouse, 10 mins, Balb/c ♂, 5ml/min
Procedure: (§1) Self-inhibition experiments were also performed. […] Cross-competition experiments were also performed.
(§2) The percentage change in the RTissue uptake values achieved in the absence or presence of an unlabelled inhibitor can be calculated by means of Eq 4.
(§3) %change=RTissue−RInhibition/RTissue×100 Eq 4
(§4) We define RInhibition as the RTissue uptake in the presence of an inhibitor in the artificial plasma.
(§5) A decrease in the uptake of radiolabelled solute in the presence of unlabelled inhibitor is indicative of a saturable influx transport system. Conversely, an increase in the uptake of radiolabelled solute in the presence of unlabelled inhibitor is indicative of a saturable efflux transport system.
Concentrations of ADMA were specifically selected to mimic plasma concentrations under normal conditions (0.5 μM), pathophysiological conditions (3.0 μM), and then supraphysiological concentrations (10, 100 and 500 μM).

[2] = in situ brain/choroid plexus perfusion: CNS uptake of [^3H]-arginine, [^3H]-ADMA and [^14C]-sucrose (multiple-time and single-time uptake analysis); details: for Kp at 30 min / Kp at 20 min: male, BALB/c, mouse, in vivo; for Kp at 20 min: tissue or CSF to plasma ratio (mean), uncorrected, given as fraction
Procedure: All animals used in procedures were adult male BALB/c mice (between 23 g and 25 g) sourced from Harlan Laboratories, Oxon, UK, unless otherwise stated.
Animals were weighed immediately before the administration of the anaesthetic to ensure correct dosage. Domitor® (medetomidine hydrochloride) and Vetalar® (ketamine) were both purchased from Harlan Laboratories (Cambridge, UK). All animals were terminally anaesthetised (2 mg/kg Domitor® and 150 mg/kg Vetalar® injected intraperitoneally), and a lack of self-righting and paw-withdrawal reflexes (as surrogate indicators of consciousness) thoroughly checked prior to and during all procedures. If needed, additional anaesthetic was administered via the same route. […] At the end of the in situ brain perfusion procedure the animal was killed by decapitated under non-recovery anaesthesia. Animals were heparinised with 100 units heparin (in 0.9% m/v NaCl(aq), Harlan Laboratories; Oxon, UK), administered via the intraperitoneal route prior to surgery.
The in situ brain/choroid plexus perfusion method is designed to directly perfuse the brain with artificial plasma via a cannula placed in the heart. Artificial plasma is prepared to mimic the ionic composition of blood, and transporter inhibitors can be added in known concentrations and delivered to the brain for defined periods of time.
The left ventricle of the heart was cannulated with a 25G x 10 mm butterfly-winged needle connected to the perfusion circuit. […] The right atrium of the heart was sectioned to allow outflow of the artificial plasma. […] Radiolabelled and unlabelled test molecules were infused into the inflowing artificial plasma for periods up to 30 minutes.
At the set perfusion time a CSF sample was taken by inserting a pulled glass micropipette connected to silicon tubing and a syringe into the cisterna magna. Gentle suction was applied, and CSF was withdrawn. Only clear CSF samples were processed and taken for analysis. Samples contaminated with blood were discarded. The animal was then decapitated and the brain removed. Specific brain samples including the circumventricular organs (CVOs) were taken using a Leica S4E L2 stereomicroscope (Leica; Buckinghamshire, UK). The brain samples included the frontal cortex, caudate nucleus, occipital cortex, hippocampus, hypothalamus, thalamus, pons and cerebellum. The CVOs included the choroid plexus, pituitary gland and pineal gland.
All samples (brain regions, capillary depletion brain homogenate, pellet and supernatant, CVOs, CSF and plasma samples) were solubilised in 0.5 mL tissue solubiliser (Solvable; Perkin-Elmer; Boston, MA, USA). After incubating the samples at room temperature for 48 h, 4 mL scintillation fluid (Lumasafe®; Perkin-Elmer; Boston, MA, USA) was added to each before vigorous vortexing.

[3] = test system: [^3H]-arginine transport across the blood-brain and blood-CSF barriers; assay: self-inhibition, in situ perfusion: [^3H]-arginine with 100 μM unlabelled L-arginine; format: in vivo, mouse; details: +100uM Un-labelled arginine, 10 mins, Balb/c ♂, 5ml/min; single mouse
Procedure: as §1, §2, §3, §4, §5

[4] = as above; format: in vivo, mouse; details: male, Balb/c, mouse, other: in situ brain perfusion, with 100 µM unlabelled L-arginine, +100uM Un-labelled arginine, 10 mins, Balb/c ♂, 5ml/min
Procedure: as §1, §2, §3, §4, §5

`OC[C@H]1O[C@@](CO)(O[C@H]2O[C@H](CO)[C@@H](O)[C@H](O)[C@H]2O)[C@@H](O)[C@@H]1O` [[^14C]-sucrose, reference compound] showed a Kp at 10 min ([1]; BALB/c, other: in situ brain perfusion with artificial plasma, with unlabelled ADMA 500 µM, [3H] Arginine and [14C] Sucrose uptake, pellet, + 500µM un-labelled ADMA, mean) of 0.00271, a Kp at 10 min ([1]; BALB/c, thalamus, other: in situ brain perfusion with artificial plasma, with unlabelled ADMA 500 µM, [3H] Arginine and [14C] Sucrose uptake, thalamus, + 500µM un-labelled ADMA, mean) of 0.034 and a Kp at 10 min ([1]; Balb/c, CSF, other: in situ brain perfusion, with unlabelled ADMA 100 µM, Arginine / Sucrose uptake, CSF, mean, [3H] Arginine + [14C] Sucrose + 100µM un-labelled ADMA, mean) of 0.149. The Kp at 10 min ([1]; Balb/c, caudate nucleus, other: in situ brain perfusion, with unlabelled ADMA 10 µM, Arginine / Sucrose uptake, caudate nucleus, mean, [3H] Arginine + [14C] Sucrose + 10 uM ADMA, mean) was 0.0357, the Kp at 10 min ([1]; Balb/c, cerebellum, other: in situ brain perfusion, with unlabelled ADMA 0.5 µM, cerebellum: [14C] Sucrose, + 0.5 uM ADMA, mean) was 0.0327 and the Kp at 10 min ([1]; Balb/c, choroid plexus, other: in situ brain perfusion, with 0.5 µM unlabelled ADMA, choroid plexus: [14C] Sucrose, + 0.5 uM ADMA, mean) was 0.162. It also gave a Kp at 10 min ([1]; Balb/c, frontal cortex, other: in situ brain perfusion, with unlabelled ADMA 3 µM, Arginine / Sucrose uptake, frontal cortex, [3H] Arginine + [14C] Sucrose + 3 uM ADMA, single mice) of 0.0326, a Kp at 10 min ([1]; Balb/c, hypothalamus, other: in situ brain perfusion, with unlabelled ADMA 3 µM, Arginine / Sucrose uptake, hypothalamus, mean, [3H] Arginine + [14C] Sucrose + 3 uM ADMA, mean) of 0.0456 and a Kp at 10 min ([1]; Balb/c, hypothalamus, other: in situ brain perfusion, with unlabelled ADMA 10 µM, Arginine / Sucrose uptake, hypothalamus, mean, [3H] Arginine + [14C] Sucrose + 10 uM ADMA, mean) of 0.074. It also gave a Kp at 10 min ([1]; Balb/c, hypothalamus, other: in situ brain perfusion, with unlabelled ADMA 100 µM, Arginine / Sucrose uptake, hypothalamus, mean, [3H] Arginine + [14C] Sucrose + 100µM un-labelled ADMA, mean) of 0.0349, a Kp at 10 min ([1]; Balb/c, pellet (cerebral capillary endothelial cells), other: in situ brain perfusion, with unlabelled ADMA 0.5 µM, pellet: [14C] Sucrose, + 0.5 uM ADMA, mean) of 0.00977 and a Kp at 10 min ([1]; Balb/c, pineal gland, other: in situ brain perfusion, with unlabelled ADMA 10 µM, Arginine / Sucrose uptake, pineal gland, mean, [3H] Arginine + [14C] Sucrose + 10 uM ADMA, mean) of 0.504. For the same compound, the Kp at 10 min ([1]; Balb/c, pituitary gland, other: in situ brain perfusion, with 0.5 µM unlabelled ADMA, pituitary gland: [14C] Sucrose, + 0.5 uM ADMA, mean) was 0.13, the Kp at 10 min ([1]; Balb/c, pituitary gland, other: in situ brain perfusion, with unlabelled ADMA 3 µM, Arginine / Sucrose uptake, pituitary gland, mean, [3H] Arginine + [14C] Sucrose + 3 uM ADMA, mean) was 0.146 and the Kp at 10 min ([1]; Balb/c, pons, other: in situ brain perfusion, with unlabelled ADMA 0.5 µM, pons: [14C] Sucrose, + 0.5 uM ADMA, mean) was 0.0597. The Kp at 10 min ([1]; Balb/c, pons, other: in situ brain perfusion, with unlabelled ADMA 3 µM, Arginine / Sucrose uptake, pons, mean, [3H] Arginine + [14C] Sucrose + 3 uM ADMA, mean) was 0.0612, the Kp at 10 min ([1]; Balb/c, pons, other: in situ brain perfusion, with unlabelled ADMA 10 µM, Arginine / Sucrose uptake, pons, mean, [3H] Arginine + [14C] Sucrose + 10 uM ADMA, mean) was 0.0764 and the Kp at 10 min ([1]; Balb/c, thalamus, other: in situ brain perfusion, with unlabelled ADMA 10 µM, Arginine / Sucrose uptake, thalamus, mean, [3H] Arginine + [14C] Sucrose + 10 uM ADMA, mean) was 0.0352. For the same compound, the “pineal gland: [14C] Sucrose” value ([2]; 30 mins, Balb/c ♂, 5ml/min, single mouse) was 0.7704 and 1.659 and 1.346, the Kp at 30 min ([2]; caudate nucleus: [14C] Sucrose, 30 mins, Balb/c ♂, 5ml/min, mean) was 0.0778 and the Kp at 30 min ([2]; cerebellum: [14C] Sucrose, 30 mins, Balb/c ♂, 5ml/min, mean) was 0.059. The Kp at 30 min ([2]; cerebellum: [14C] Sucrose, 30 mins, Balb/c ♂, 5ml/min, single mouse) was 0.0613, the Kp at 30 min ([2]; pineal gland: [14C] Sucrose, 30 mins, Balb/c ♂, 5ml/min, mean) was 1.05 and the Kp at 30 min ([2]; pons: [14C] Sucrose, 30 mins, Balb/c ♂, 5ml/min, mean) was 0.124. The Kp at 30 min ([2]; thalamus: [14C] Sucrose, 30 mins, Balb/c ♂, 5ml/min, mean) was 0.0965, the Kp at 20 min ([2]; caudate nucleus) was 0.0663 and the Kp at 20 min ([2]; cerebellum) was 0.0456. For the same compound, the Kp at 20 min ([2]; frontal cortex) was 0.0797, the Kp at 20 min ([2]; hippocampus) was 0.0477 and the Kp at 20 min ([2]; hypothalamus) was 0.0657. The Kp at 20 min ([2]; pineal gland) was 0.524, the Kp at 20 min ([2]; pons) was 0.118 and the Kp at 20 min ([2]; thalamus) was 0.0672. For the same compound, the “pellet: [14C] Sucrose” value [3] was 0.001001 and 0.002262 and 0.003661 and 0.002471 and 0.002325, the Kp at 10 min ([4]; pellet, pellet: [14C] Sucrose, mean) was 0.00699 and the Kp at 10 min ([4]; pituitary gland, pituitary gland: [14C] Sucrose, mean) was 0.151. The Kp at 10 min ([4]; pons, pons: [14C] Sucrose, mean) was 0.0326 and the Kp at 10 min ([4]; supernatant, supernatant: [14C] Sucrose, single mouse) was 0.0159.
